This note sets out measurements from patent EP4786454A1, “HETEROARYL DERIVATIVE AND USE THEREOF” (priority 2023, dated 2025).

The nature of data set [1]: Plasma protein binding rate, equilibrium dialysis (mouse plasma). It counts as in vitro ADME, CD-1 mice. The settings on record: m (CD-1 mouse plasma), dialysis 4 hours at 37 °C, read-out: Unbound PPB%. As to the method: (§1) The protein binding rates of the compounds in the plasma of CD-1 mice, Sprague-Dawley rats, beagle dogs, cynomolgus monkeys, and human were determined using equilibrium dialysis method.
(§2) Commercially available plasma, dual-layer dialysis membrane, and equilibrium dialysis device.
(§3) The dual-layer dialysis membrane was soaked in ultrapure water for about 1 hour, removed and then divided into two parts. It was then soaked in an ethanol:water (20:80, v:v) solution for 20 minutes or placed at 2 to 8 °C, and it was valid for 1 month. Before starting the assay, the dialysis membrane was rinsed twice with ultrapure water and then soaked in ultrapure water for another 20 minutes for later use.
(§4) On the day of assay, the frozen plasma of CD-1 mice, Sprague-Dawley rats, beagle dogs, cynomolgus monkeys, and human was thawed in running cold tap water. After the plasma was completely thawed, the plasma was centrifuged at 3220×g for 5 minutes, and the suspended substances and precipitates in it were removed. The pH of the plasma was determined. The plasma with a pH in the range of 7.4 ± 0.1 was directly used, or the plasma with a pH in the range of 7.4 ± 0.1 after an adjustment with 1% phosphoric acid or 1M sodium hydroxide was used.
(§5) Preparation process of plasma samples: 597 µL of blank plasma from each of the above five species was taken, respectively. 3 µL of a compound or warfarin working solution was added, and the mixture was mixed thoroughly to give a plasma sample with a compound concentration of 2 µM and a warfarin concentration of 2 µM (n=1). The concentration of the organic phase DMSO was 0.5%. The sample was thoroughly mixed before proceeding to the next step.
(§6) Preparation process of T0 samples: 50 µL of a plasma sample containing the compound and warfarin was transferred to a sample receiving plate (n=3), and 50 µL of blank PBS was immediately added. Then, 500 µL of stop solution was added to the T0 sample of the compound and warfarin, and the mixture was stored at 2 to 8 °C, waiting to be processed later together with other dialysis-processed samples.
(§7) Dialysis process of plasma samples: 100 µL of a compound (2 µM) and warfarin (2 µM) plasma sample was added to the donor of each dialysis well (n=3), and 100 µL of blank PBS was added to the corresponding receiver of the dialysis well. The dialysis plate was placed in a 5% CO2 incubator, and incubated at 37 °C with shaking at approximately 100 rpm for 4 hours.
(§8) After the dialysis was completed, 50 µL of dialysis-processed PBS sample and dialysis-processed plasma sample (n=3) were transferred to a new 96-well plate (sample receiving plate). The corresponding volume of the corresponding blank plasma or PBS was added to the sample to make the final volume of each sample well 100 µL, with a plasma to PBS volume ratio of 1:1. All the samples were analyzed by LC-MS/MS after protein precipitation.
(§9) The formulas for calculating the unbound fraction (%Unbound), bound fraction (%Bound) and recovery fraction (%Recovery) of a compound are as follows: %Unbound = 100 ×F / T %Bound = 100 - %Unbound %Recovery = 100 ×(F + T)/ T0 wherein F is the concentration of the compound at the receiver of dialysis; T is the concentration of the compound at the supply end of dialysis; and T0 is the concentration of the compound in the plasma at time zero.
Background: In equilibrium dialysis free small molecules cross a membrane that holds back macromolecules.

Data set [2] is described as follows: Plasma protein binding rate, equilibrium dialysis (monkey plasma). It counts as in vitro ADME, cynomolgus monkeys. The settings on record: c (cynomolgus monkey plasma), dialysis 4 hours at 37 °C, read-out: Unbound PPB%. As to the method:
as §1, §2, §3, §4, §5, §6, §7, §8, §9

A short description of data set [3]: Kinetic solubility in 50 mM phosphate buffer, LC-UV. The format is physicochemical. The settings on record: room temperature, 24 hours. How it is done: The purpose of this assay was to determine the kinetic solubility of the compounds after incubation at room temperature in a 50 mM phosphate buffer solution with a pH of 2.0, 6.5, and 7.4 for 24 hours using a direct ultraviolet method.
10 µL of DMSO stock solutions of a test compound and control compound were added to a 96-well plate. 490 µL of the test medium was added to the 96-well plate, respectively. The plate was sealed, and vortexed for 2 minutes. The incubation concentration of a sample was 200 µM, wherein, DMSO accounted for 2%. The 96-well plate was placed on a shaker, and incubated at room temperature and 800 rpm for 24 hours to reach dissolution equilibrium. After the incubation, the sample was put into a centrifuge, and centrifuged at 25 °C and 4000 rpm for 10 minutes. The supernatant from the centrifuged sample was transferred to a filter plate, centrifuged at 4000 rpm for 5 minutes, and filtered to give filtrate. The concentration of the filtrate was analyzed using linear quantitative analysis with LC-UV (the sample was diluted as needed).
Data of the assay were acquired and processed using Empower software. Linear regression analysis was performed by plotting the relationship between the peak area and their concentrations in µM.

Regarding `CC(C)(C)CC(=O)Nc1nc2c(F)cc(C#N)cn2c1-c1ccc(OC(F)(F)F)cc1` [Compound 1], the fraction unbound at 4 h, 2 µM turned out to be 0.047 in data set [1] and 0.072 in data set [2].

Turning to `CC(C)(C)CC(=O)Nc1nc2c(F)cc(C#N)cn2c1C1=CCCC1` [Compound 3], the values for the fraction unbound at 4 h, 2 µM in data set [1] and in data set [2] were 0.087 and 0.134, respectively. Also, the KSY was found to be 3.78 µg/mL in data set [3] (pH 2.0, 50 mM phosphate buffer); 3.68 µg/mL in data set [3] (pH 6.5, 50 mM phosphate buffer); 4.43 µg/mL in data set [3] (pH 7.4, 50 mM phosphate buffer).

Regarding `CC(C)(C)CC(=O)Nc1nc2c(F)cc(C#N)cn2c1C12CC(C1)C2` [Compound 5], the fraction unbound at 4 h, 2 µM in data set [1] is 0.141; in data set [2], 0.159. Besides, the KSY in data set [3] (pH 2.0, 50 mM phosphate buffer) was 4.46 µg/mL; in data set [3] (pH 6.5, 50 mM phosphate buffer) it was 4.57 µg/mL; in data set [3] (pH 7.4, 50 mM phosphate buffer) it was 4.79 µg/mL.

Take `CC(C)(C)CC(=O)Nc1nc2c(C(F)(F)F)cc(C#N)cn2c1C12CC(C1)C2` [Compound 6]: the KSY was 21.7 µg/mL in data set [3] (pH 2.0, 50 mM phosphate buffer); 20.9 µg/mL in data set [3] (pH 6.5, 50 mM phosphate buffer); 21.4 µg/mL in data set [3] (pH 7.4, 50 mM phosphate buffer).
